The term melting point denotes the temperature, or range, at which the solid turns liquid. The molecule `CC1OP(=O)(O)c2ccccc21` (centres undefined) registered a melting point of 148 to 149 °C.
Consider `CC#CC1(O)CCC2C3CCC4=CC(=O)CCC4C3CCC21CC` (centres undefined), for which the melting point lay within 124 to 125 °C.
As for `CC(C(=O)O)c1cccc2c(-c3ccccc3)onc12` (centres undefined), the figure is 140 to 144 °C; as for `CCc1ccc(C2CCC(c3ccc(O)cc3)(c3ccc(O)cc3)CC2)cc1`, 187 to 188 °C.
In turn, `Fc1ccc2c(c1)C(=C1CCNCC1)c1ncccc1CC2` came in with a melting point of 78 to 81 °C.
As for `C=CCOC(=O)C1=C(C)Nc2nc(N)nc(N)c2C1c1cccc([N+](=O)[O-])c1` (centres undefined), the figure is 188 °C; as for `OCc1ccc(OCc2cccc(Cl)c2)cn1`, 78 to 80 °C.
As for `C=C1N(C)C(=O)OC12CCN(Cc1ccccc1)CC2`, the figure is 96 to 97 °C; as for `CC(C)C(NC(=O)NCc1ccccc1)C(=O)NC(Cc1ccccc1)C(O)C(Cc1ccccc1)NC(=O)C(NC(=O)NCc1ccccc1)C(C)C` (centres undefined), 238 °C.
As for `Cc1cccc(Br)c1C=O`, the figure is 48 to 49 °C; as for `CCOC(=O)C1=C(C)NC(C#N)=C(C(=O)OCC)C1c1ccccc1/C=C/C(=O)OC(C)(C)C` (centres undefined), 146 to 147 °C.
`O=C1C(=O)c2ccccc2C2=C1SCC1(CCN(C(=O)c3cccc([N+](=O)[O-])c3)CC1)O2` yielded a melting point of 160 to 162 °C.
As for `CCOC(=O)C(C)Oc1ccc(Oc2nc3ccc(Cl)cc3s2)cc1` (centres undefined), the figure is 49 °C.
`CCc1cn(C2CC(O)C(CNC)O2)c(=O)[nH]c1=O` (centres undefined): the melting point fell in the range of 145 to 147 °C.
`O=Cc1cccc2cc(C(=O)OCc3ccccc3)[nH]c12` had a melting point of 62 °C.
As for `COC(=O)[C@@H]1COC(c2ncn3c2CN(C)C(=O)c2sccc2-3)=N1`, the figure is 215 to 217 °C; as for `CCS(=O)(=O)c1ccc(C(CC2CCCC2)C(=O)Nc2ccccn2)cc1` (centres undefined), 144 to 145 °C.
For `O=C(NCCCc1ccncc1)N(CC=Cc1ccccc1)CCC12CC3CC(CC(C3)C1)C2` the value was 130 to 134 °C; for `CCc1nn(C2CCCC2)c2cc(C(=O)NCCC(=O)O)ccc12`, 151 to 153 °C; for `Cc1ccccc1Cn1cc(-c2cn(C3CC(O)C(CO)O3)c(=O)[nH]c2=O)nn1` (centres undefined), 168 to 170 °C.
As for `Cc1ccc(Cc2nc3c(cnn3C(CCCc3ccccc3)C(C)O)c(=O)[nH]2)cc1` (centres undefined), the figure is 133 °C; as for `COC(=O)CCCCc1cc2nc(Cl)ccc2n1S(=O)(=O)c1cc(C)cc(C)c1`, 126 °C; as for `CN(C)C1CCC2c3ccccc3Sc3ccc(C(F)(F)F)cc3N2C1` (centres undefined), 118 to 122 °C.
Turning to `CNC(=O)CC1CN=C(c2cc3cc(Oc4ccc(S(C)(=O)=O)cn4)cc(OC)c3[nH]2)S1` (centres undefined), the melting point is 207 to 209 °C.
Consider `CCCCNC(=O)OCC(=NNC(N)=S)c1ccccc1`, for which the melting point was in the range of 103 to 116 °C.
`Cc1cc(Cl)cc(NC(=O)C=NO)c1`: the melting point was in the range of 206 to 207 °C.
For `O=S(=O)(/C=C/c1ccc(F)cc1)Nc1ccc(Cl)cc1`, the melting point lay in the range of 126 to 128 °C.
As for `CC(C)n1cc(C(=O)O)c2ccc(Cl)cc21`, the figure is 206 to 208 °C.
For `O=C1CCC(N2Cc3c(OCc4ccc(CN5CCOc6ccccc65)cc4)cccc3C2=O)C(=O)N1` (centres undefined) the value was 145 to 147 °C.
`COC(=O)c1sccc1S(=O)(=O)Nc1onc(C)c1Br` came in with a melting point of 188 to 194 °C.
As for `COc1ccc(-c2c(-c3cc(OC)c(OC)c(OC)c3)ncn2-c2ccccc2)cc1O`, the melting point was 176 to 177 °C.
For `O=C(O)c1ccccc1Oc1ccc2ccccc2c1` the value was 139 to 142 °C; for `CCCCN1CCC(CNC(=O)c2ccc(N)n3cc(CC)nc23)CC1`, 139 to 145 °C.
Take `Cc1nc(-c2c(C#N)nn(-c3c(Cl)cc(C(F)(F)F)cc3Cl)c2N)cs1`: the melting point lay in the range of 226 to 228 °C.
The molecule `CCOc1cc(Cl)ccc1Cn1nc(OC(C)C)cc1CCCOc1c(CC(=O)O)cccc1OC` came in with a melting point of 98 to 99 °C.
`N#Cc1ccc(C=CC(=O)C2CC2)cc1` gave a melting point of 104 °C.
The molecule `O=c1ncc(Cl)cn1COCc1cccs1` came in with a melting point of 132 °C.
`c1ccc(-c2ncc(-c3cnc(-c4ccccn4)[nH]3)cn2)cc1` had a melting point of 262 °C.
For `O=C(O)c1ccc(NC(=O)c2ccc3c(c2)SCCCC3)cc1`, the melting point was in the range of 261 to 262 °C.
As for `COc1ccc(CNC2(Cc3ccccc3)CCC(=O)CC2)cc1`, the figure is 122 to 124 °C; as for `Nc1nnc(-c2cccc(OCc3c(Cl)cccc3Cl)c2)c(N)n1`, 190 to 192 °C.
`CCN1C(=O)CCc2cc(S(=O)(=O)c3cccc([C@@]4(O)CCO[C@@H](C)C4)c3)ccc21` registered a melting point of 122 to 124 °C.
In turn, `Cc1ccc(CC(O)=S)cc1` came in with a melting point of 94.5 to 95 °C.
For `COc1cnnc(Cl)c1` the value was 98 to 100 °C.
`O=C1C(=O)c2ccccc2C2=C1SCC1(CCN(C(=O)c3ccoc3)CC1)O2` displayed a melting point of 234 to 235 °C.
For `Clc1cccc2c(CN3CC=C(CCc4ccccc4)CC3)n[nH]c12` the value was 171 to 172 °C.
As for `CCn1cc(C(=O)O)c(=O)c2cc(F)c(N3CCN(O)CC3)c(F)c21`, the figure is 253 to 260 °C.
Consider `COC(=O)COc1ccc(OC/C=C(/c2ccc(Cl)cc2)c2ccc(I)cc2)cc1C`, for which the melting point lay within 89 to 92 °C.
`Nc1cccc(O)c1Cl`: the melting point amounted to 153 °C.
In the case of `Cc1c(CCCCCCCCCCCC(=O)O)cccc1C(=O)c1ccc(Cl)cc1`, the melting point is 79 °C.
With `CCC(=O)NCC(COS(C)(=O)=O)c1cccc2ccc(OC)cc12` (centres undefined), the melting point lay within 118 to 120 °C.
For `CC[Si](C)(C)NC(=O)c1ccc(N)cc1` the value was 126 to 127 °C; for `CC#CCOc1ccc(S(=O)(=O)NC(Cc2c[nH]c3ccc(C)cc23)C(=O)O)cc1` (centres undefined), 45 to 46 °C.
As for `Cn1cc2c3c(c(F)cc2n1)CCC3=O`, the figure is 190 to 192 °C; as for `CSc1cc(C)nc(SC)c1NC(=O)CCCCCCCSc1nc2c(C)c(Cl)cc(C(C)C)c2o1`, 128 to 131 °C.
For the molecule `CCOC(=O)CCCCc1ccc2c(c1)C[C@@H](NC(=O)OC(C)(C)C)CC2`, the melting point was 65 to 67 °C.
As for `COc1ccc2c(c1)C(=NNc1ccc(S(N)(=O)=O)cc1)C(=O)N2`, the figure is greater than 250 °C; as for `O=[N+]([O-])c1cc(-c2nnc(Nc3ccc(Cl)c(Cl)c3)s2)cc([N+](=O)[O-])c1`, 305 to 306 °C; as for `C#CC1(O)CCC2C3C(C)CC4=CC(=O)CCC4C3CCC21CC` (centres undefined), 182 to 184 °C.
As for `CC(C)Nc1cccnc1N1CCN(C(=O)c2ccc(C(=O)N[C@H](CO)c3ccccc3)cc2)CC1`, the figure is 93 to 95 °C; as for `Cc1nc(O)c(C)c(O)n1`, 300 °C; as for `Cc1ccc(C=CC#N)cc1C`, 93.9 °C.
`NS(=O)(=O)c1ccc(-c2[nH]c3ccccc3c2-c2ccc(Br)cc2)cc1` registered a melting point of 277 to 279 °C.
As for `CS(=O)(=O)c1ccc(/C(=C2\N=C(c3ccccc3)OC2=O)c2ccc(Cl)cc2)cc1`, the figure is 226 °C.
For `COc1ccc(CN2C(=O)c3ccccc3C2=O)cc1OC` the value was 160 to 161 °C; for `CC1(C)C=C(N2CCCCC2=O)c2cc(C#N)ccc2O1`, 162 to 163 °C.
As for `COC(=O)c1ccc(OCC2CC(=O)N(c3ccc(OS(C)(=O)=O)cc3)C2)cc1` (centres undefined), the figure is 111 to 113 °C; as for `Nc1ccccc1SCC1=NOCN1`, 108 °C; as for `COc1cc(C(=O)N2CCN(C(=O)OC(C)(C)C)C(C=O)C2)cc(OC)c1OC` (centres undefined), 160 to 161 °C.
For the molecule `CC1(C)CON(Cc2ccc(N3C(=O)C4=C(CCCC4)C3=O)cc2Cl)C1=O`, the melting point is 102 to 104 °C.
On to `Cc1oc(-c2ccc3ccccc3c2)nc1/C=C/c1ccc(C=O)cc1`, for which the melting point was in the range of 162 to 163 °C.
Consider `CCOC(=O)C=CC=Cc1ccc(F)c([N+](=O)[O-])c1`, for which the melting point was in the range of 106 to 107 °C.
As for `CCCCCCc1c(Cl)nc(NC=O)nc1Cl`, the figure is 80 to 81 °C; as for `CCCc1cc(Cl)c(O)c2c(C)c(Cc3ccc(OC)cc3)oc12`, 99 to 100 °C.
`CC1CN(Cc2ccccc2)CCC12CC(c1ccccc1)=NO2` (centres undefined) yielded a melting point of 101 to 108 °C.
Molecule `CC(=O)Nc1c(C(=O)c2cccc([N+](=O)[O-])c2)[nH]c2cc(Cl)ccc12` displayed a melting point of 246 to 250 °C.
As to `CC(C)C(NC(=O)c1ccc(C(=O)NCc2ccc(N)cc2)cc1)C(=O)N1CCCC1C(=O)NC(C(=O)C(F)(F)F)C(C)C` (mixture of isomers), the melting point is 90 to 92 °C.
Consider `COc1cc(-c2cc(=O)c3ccc(OCCBr)cc3o2)cc(OC)c1OC`, for which the melting point lay in the range of 184 to 185 °C.
Turning to `Cc1ccc2c(c1)C(c1ccccc1)=NCc1nnc(CN(C)C)n1-2`, the melting point was 154 to 156 °C.
As for `CC1c2cc(O)ccc2-c2ccc(O)cc21`, the figure is 192 to 196 °C; as for `COc1cccc(N(CCN2CCC(C(=O)c3ccc(F)cc3)CC2)C(=O)c2cccc([N+](=O)[O-])c2)c1`, 123 to 125 °C; as for `Cc1cccc2c1OC[C@H](NC(=O)OC(C)(C)C)C(=O)N2`, 179 °C.
For `Cc1cccc(Nc2ncnc3ccc(CSc4nc5ccccc5[nH]4)cc23)c1`, the melting point was 123 to 129 °C.
As for `O=C1c2c(O)cccc2C(SCCS)c2cccc(O)c21`, the figure is 133 to 134 °C.
In turn, `O=C(CCl)Nc1ccc2c(c1NC(=O)c1ccccc1C(F)(F)F)C(=O)c1ccccc1C2=O` gave a melting point of 248 to 250 °C.
For `CC(=O)n1c(=NC(F)(F)F)oc2ccccc21` the value was 140 to 143 °C.
For `O=C(NC(Cc1ccccc1)C(=O)O)OCC1c2c(c3ccccc3c3ccccc23)-c2c1c1ccccc1c1ccccc21` (centres undefined) the value was 137 to 140 °C.
As for `Cc1cc(C)cc(-c2cnn3c(-c4cccc(-c5nnn(Cc6ccccn6)n5)c4)ccnc23)c1`, the figure is 77 °C.
The molecule `CC(=O)Nc1ccc(C(=O)OC2C=C(C)C(=O)CC(C)(C)C2O)cc1` (centres undefined) displayed a melting point of 134 to 135 °C.

The values are drawn from a melting point compilation (Tetko et al.; mined from patent text by program, amines drawn as free bases though some values may be those of a salt).
